We go through three compounds from PMC7369893, “Antimicrobial Peptides Display Strong Synergy with Vancomycin Against Vancomycin-Resistant E. faecium, S. aureus, and Wild-Type E. coli” (International Journal of Molecular Sciences, 2020).

Converted amounts (≈) assume the structure as drawn. Positions of bridges follow the written chain, without caps; N, C: chain ends. Non-standard residues stand in square brackets, D forms with d. Residues, ends and D or L forms follow the SMILES beside them. No end group written: not given here. Dip = N[C@H](C(=O)O)C(c1ccccc1)c1ccccc1; 2Nal = N[C@@H](Cc1ccc2ccccc2c1)C(=O)O

For one data set, the system named is Gram-negative bacteria. To be noted: cited from earlier work. The text has this:
CLP-19 was derived from the core domain of Limulus anti-LPS factor (LALF; amino acids 31–52) with a sequence of ([…]) and a head to tail disulfide bond. It is likely that the positive charges of CLP-19 can interact with the negative charges of LPS and the hydrophobic part of CLP-19 can bind to the f ...

The test system of data set [1] is E. faecium BCRC 15B0132 (VRE). As to the kind of experiment: microbe, parasite or virus in culture. It is filed as cell-based, Enterococcus faecium. To be noted: BCRC 15, 16 h. As for the experimental part: (§1) The antibacterial activities of peptides were determined by the standard broth microdilution method according to the guidelines of the Clinical and Laboratory Standards Institute (CLSI). Briefly, E. coli ATCC 25922 were incubated in MHB, and E. faecium BCRC 15B0132, VISA and VRSA strains were incubated in TSB overnight at 37 °C. The cell cultures were regrown to the mid-log phase and subsequently diluted to a final concentration of 5 × 10^5 CFU/mL. The 1 µL peptides or antibiotic were loaded into each well at the final concentration of 64, 32, 16, 8, 4, 2, 1, and 0.5 µg/mL, then loaded 99 µL diluted microbes into each well of polypropylene 96-well plate. After 16 h of incubation at 37 °C, the turbidity at OD600 was measured by the microplate reader. The minimal inhibitory concentration (MIC) value was defined as the lowest concentration of peptide or antibiotic, which inhibited the 90% visible growth of bacteria. All experiments were repeated three times independently.

Data set [2] concerns Vancomycin-intermediate S. aureus 01 (VISA01). The data set can be described thus: microbe, parasite or virus in culture. In kind it is cell-based, Staphylococcus aureus. To be noted: Vancomycin-intermediate 01 (VISA01, 16 h). As for the experimental part: as §1
Data set [3] has as its system Vancomycin-intermediate S. aureus 02 (VISA02). As to the kind of experiment: microbe, parasite or virus in culture. It is filed as cell-based, Staphylococcus aureus. To be noted: Vancomycin-intermediate 02 (VISA02, 16 h). As to the method: as §1
The subject of data set [4] is Vancomycin-intermediate S. aureus 03 (VISA03). The data set can be described thus: microbe, parasite or virus in culture. In kind it is cell-based, Staphylococcus aureus. The following applies: Vancomycin-intermediate 03 (VISA03, 16 h). As to the method:
as §1

The test system of data set [5] is Vancomycin-resistant S. aureus 01 (VRSA01). The data set can be described thus: microbe, parasite or virus in culture. In kind it is cell-based, Staphylococcus aureus. The following applies: VRSA01 (induced from VISA01 by serial passage); CLSI broth microdilution, TSB, 5 × 10^5 CFU/mL, 16 h, 37 °C; triplicate. As for the experimental part:
(§2) For the purpose of inducing vancomycin-resistant Staphylococcus aureus (VRSA), the VISA01, VISA02, and VISA03 bacteria were incubated overnight in culture medium, and transferring 50 µL of bacteria to 5 mL of fresh medium containing 2 μg/mL of vancomycin then incubated overnight. The bacteria were transferred to new tube with doubling vancomycin concentration and then incubated overnight again. The concentration of vancomycin during serial passage was 2, 4, 8, 16, and 32 µg/mL. The procedure was repeated until meeting the final concentration of 32 µg/mL. After serial passage, the cell resistance was confirmed by using an MIC assay.
as §1
Background: In broth dilution the organism is exposed to a series of concentrations in liquid medium.

In data set [6] the test system is Vancomycin-resistant S. aureus 02 (VRSA02). The data set can be described thus: microbe, parasite or virus in culture. It is filed as cell-based, Staphylococcus aureus. To be noted: VRSA02 (induced from VISA02 by serial passage); CLSI broth microdilution, TSB, 5 × 10^5 CFU/mL, 16 h, 37 °C; triplicate. As for the experimental part: as §2, §1
Data set [7] deals with Vancomycin-resistant S. aureus 03 (VRSA03). The data set can be described thus: microbe, parasite or virus in culture. It is filed as cell-based, Staphylococcus aureus. The following applies: VRSA03 (induced from VISA03 by serial passage); CLSI broth microdilution, TSB, 5 × 10^5 CFU/mL, 16 h, 37 °C; triplicate. As for the experimental part: as §2, §1
Data set [8] concerns E. coli ATCC 25922. As to the kind of experiment: microbe, parasite or virus in culture. It is filed as cell-based, Escherichia coli. To be noted: ATCC 25922, 16 h. As to the method: as §1
The test system of data set [9] is VRE, VISA, VRSA and E. coli strains. As to the kind of experiment: Checkerboard assay, summary statements of the text over the strain panel. It is filed as cell-based. To be noted: peptide at ¼ ×MIC combined with vancomycin, all strains studied. As for the experimental part:
The synergistic effects of peptides in combination with vancomycin were investigated by checkerboard assay with slight modification. The peptides were fixed concentration at ¼ × MIC, then in combination with antibiotics at various concentrations in each well of 96-well plate. Then the peptide/antibiotic were mixed with inoculum (5 × 10^5 CFU/mL) and incubated at 37 °C for 16 h. The fractional inhibitory concentration (FIC) index was calculated as follows: FIC index = (MIC of drug A in combination/MIC of drug A alone) + (MIC of drug B in combination/MIC of drug B alone). An FIC index of ≤ 0.5 was defined as synergy, indifference was defined as an FIC index of 0.5 < FICI ≤ 4, antagonism was defined as an FIC index of > 4. The experiments were performed in triplicate.

For data set [10], the system named is E. faecium BCRC 15B0132 (VRE). The data set can be described thus: Time killing assay. To be noted: 5 × 10^5 CFU/mL, 1 × MIC, 0.5-24 h, 37 °C, triplicate. It is filed as cell-based, Enterococcus faecium. As to the method:
(§3) The bactericidal activities of vancomycin, P-113, Phe-P-113, Bip-P-113, Dip-P-113, and Nal-P-113 against E. faecium BCRC 15B0132 (VRE) and E. coli ATCC 25922 were assessed by the time-kill analysis. The cells were grown overnight in TSB or MHB at 37 °C with shaking, and then fresh TSB or MHB was inoculated for growth to mid-logarithmic phase. Bacteria (5 × 10^5 CFU/mL) were treated with 1 × MIC vancomycin, P-113, Phe-P-113, Bip-P-113, Dip-P-113, and Nal-P-113 for 0.5, 1, 2, 4, 6, 10, and 24 h at 37 °C. Bacteria without peptides and vancomycin served as a control. Aliquots were removed at each time points, and 10-fold serial dilutions of the aliquot were plated onto the Müller-Hinton agar. The numbers of CFU were counted after 24 h of incubation at 37 °C. The detection limit for the colony counts was 2log10 CFU/mL.

In a further data set the test system is E. faecium BCRC 15B0132. The data set can be described thus: Uptake of BODIPY-labeled vancomycin, confocal laser scanning microscopy. It is filed as cell-based, Enterococcus faecium. The following applies: VRE 10^7 CFU/mL, 0.5 ×MIC peptide 30 min at 37 °C, then BODIPY-labeled vancomycin (2 μg/mL) 30 min; mean fluorescence intensity. As to the method:
(§4) The fluorescence experiments were performed with slight modification as described previously. Briefly, the bacteria (10^7 CFU/mL) were incubated with 0.5 ×MIC antimicrobial peptides for 30 min and then treated with BODIPY-labeled vancomycin (2 μg/mL) for 30 min. Samples treated with BODIPY-labeled vancomycin only served as a control. After incubation, bacteria were centrifuged at 8000× g for 5 min, washed three times with PBS to remove unbinding fluorescence dye, and resuspended by PBS. The resuspended solution were loaded on the glass slides (Polysine™, Thermo Fisher Scientific, Waltham, MA, USA) and visualized under confocal laser scanning microscope (LSM 510 META, Carl Zeiss, Jena, Thüringen, Germany) equipped with a 64× oil objective lens (Carl Zeiss, Jena, Thüringen, Germany).

The test system of data set [11] is E. coli ATCC 25922. The data set is described as above. In kind it is cell-based, Escherichia coli. To be noted: E. coli 10^7 CFU/mL, 0.5 ×MIC peptide 30 min at 37 °C, then BODIPY-labeled vancomycin (2 μg/mL) 30 min; mean fluorescence intensity. As to the method:
as §4

For data set [12] the following is noted: POPC:POPG (3:1, mol/mol) and POPC:LPS (4:1, mol/mol) LUVs; cited from earlier work. The text has this:
Dathe and coauthors used POPC:LPS as model prokaryotic membranes to study peptide activity against E. coli and the role of LPS [20]. Previously, we have evaluated the membrane-permeability of P-113 and its derivatives by measuring the release of calcein from various phospholipid vesicles such as POPC:POPG (3:1, mol/mol) LUVs (mimic the anionic bacterial membrane) and POPC:LPS (4:1, mol/mol) LUVs (served as surrogates of Gram-negative bacterial membranes that contain LPS). […] Nal- ...

Another data set deals with human fibroblasts (HFW). To be noted: peptide >25 µg/mL; cited from earlier work.
Data set [13] has as its system VRE, VISA, VRSA, and E. coli strains. The data set can be described thus: microbe, parasite or virus in culture. In kind it is cell-based. The following applies: all strains studied (VRE, VISA 01-03, VRSA 01-03, E. coli), Table 2. As to the method:
as §1

The subject of data set [14] is E. coli ATCC 25922. The data set can be described thus: Time killing assay. In kind it is cell-based, Escherichia coli. To be noted: E. coli ATCC 25922, 5 × 10^5 CFU/mL, 1 × MIC, 0.5-24 h, 37 °C; triplicate. As for the experimental part:
as §3

In the case of “CHYRIKPTFRRLKWKYKGKFWC (disulfide 1-22 (inferred)) [CLP-19, antimicrobial peptide derived from the core domain of Limulus anti-LPS factor, with a disulfide bond]”, in the data set with Gram-negative bacteria, the “antibiotic-induced release of LPS” value is recorded as “reduce antibiotic-induced release of LPS”.
`CC(=O)N[C@@H](C)C(=O)N[C@@H](CCCCN)C(=O)N[C@@H](CCCNC(=N)N)C(=O)N[C@H](C(=O)N[C@H](C(=O)NCC(=O)N[C@@H](Cc1ccc(O)cc1)C(=O)N[C@@H](CCCCN)C(=O)N[C@@H](CCCNC(=N)N)C(=O)N[C@@H](CCCCN)C(=O)N[C@@H](Cc1ccccc1)C(=O)N[C@H](C(N)=O)C(c1ccccc1)c1ccccc1)C(c1ccccc1)c1ccccc1)C(c1ccccc1)c1ccccc1` [Dip-P-113] (Ac-AKR[Dip][Dip]GYKRKF[Dip]-NH2): the MIC amounted to 4 µg/mL (≈ 2.15 µM) in data set [1]; 16 µg/mL (≈ 8.58 µM) in data set [2]; 16 µg/mL (≈ 8.58 µM) in data set [3]; 16 µg/mL (≈ 8.58 µM) in [4]; 32 µg/mL (≈ 17.2 µM) in [5]; 32 µg/mL (≈ 17.2 µM) in [6]. For the same compound, the values for the MIC (in data set [7]; against E. coli ATCC 25922 [8]) were 32 µg/mL (≈ 17.2 µM) and 64 µg/mL (≈ 34.3 µM), respectively. The “synergy with vancomycin (interpretation of FICI)” value in data set [9] was “synergistic effects against VRE, VRSA 02, and E. coli”. The killing kinetics entry in data set [10] was “rapid bactericidal activity”. Besides, the figures for the “entry of BODIPY-labeled vancomycin into the bacteria (rank order)” value in the data set with E. faecium BCRC 15B0132 and in the data set on E. coli ATCC 25922 [11] were “Bip-P-113 = Nal-P-113 > Dip-P-113 > Phe-P-113 = P-113” and “Bip-P-113 > Nal-P-113 > Dip-P-113 > Phe-P-113 = P-113”, respectively. Besides, the “calcein leakage from LUVs” value in data set [12] is given as “dose-dependent calcein leakage”. For the same compound, the “cell death (MTT)” value in the data set on human fibroblasts (HFW) was 10–20%.
Take `CC(=O)N[C@@H](C)C(=O)N[C@@H](CCCCN)C(=O)N[C@@H](CCCNC(=N)N)C(=O)N[C@@H](Cc1ccc2ccccc2c1)C(=O)N[C@@H](Cc1ccc2ccccc2c1)C(=O)NCC(=O)N[C@@H](Cc1ccc(O)cc1)C(=O)N[C@@H](CCCCN)C(=O)N[C@@H](CCCNC(=N)N)C(=O)N[C@@H](CCCCN)C(=O)N[C@@H](Cc1ccccc1)C(=O)N[C@@H](Cc1ccc2ccccc2c1)C(N)=O` [Nal-P-113] (Ac-AKR[2Nal][2Nal]GYKRKF[2Nal]-NH2): the MIC in [1] worked out at 4 µg/mL (≈ 2.24 µM); in data set [2] it was 8 µg/mL (≈ 4.48 µM); in [3] it was 8 µg/mL (≈ 4.48 µM); in data set [4], 8 µg/mL (≈ 4.48 µM); in [5] it was 8 µg/mL (≈ 4.48 µM); in [6], 8 µg/mL (≈ 4.48 µM). Also, the values for the MIC (in data set [7]; against E. coli ATCC 25922 [8]) were 16 µg/mL (≈ 8.96 µM) and 32 µg/mL (≈ 17.9 µM), respectively. For the same compound, the “MICs against these bacterial strains” value in data set [13] is listed as “best MICs”. Also, the “synergy with vancomycin (interpretation of FICI)” value in [9] was “synergistic effects against VRE, VISA 03, VRSA 01, VRSA 02, VRSA 03, and E. coli”. Moreover, the killing kinetics entry was “rapid bactericidal activity” in data set [10] and “fastest bactericidal activity” with E. coli ATCC 25922 [14]. Besides, the “entry of BODIPY-labeled vancomycin into the bacteria (rank order)” value was “Bip-P-113 = Nal-P-113 > Dip-P-113 > Phe-P-113 = P-113” in the data set with E. faecium BCRC 15B0132 and “Bip-P-113 > Nal-P-113 > Dip-P-113 > Phe-P-113 = P-113” with E. coli ATCC 25922 [11]. Moreover, the “calcein leakage from LUVs” value in [12] is recorded as “dose-dependent calcein leakage”. In addition, the “cell death (MTT)” value with human fibroblasts (HFW) is reported as 10–20%.
